Measured values taken from patent publication US20160243051A1, “MONO DISPERSE POLYMER NANOPARTICLES, FUNCTIONALIZED NANOPARTICLES AND CONTROLLED FORMATION METHOD” (THE CURATORS OF THE UNIVERSITY OF MISSOURI, priority 2013, published 2016).

Assay: Near infrared whole body florescent imaging, IVIS in-vivo imaging system
Conditions: nude mice, 100 μl injected once, 0.15 mg/ml ICG
Procedure: Near Infrared based florescent imaging was carried out in nude mice through IVIS in-vivo imaging system. Briefly, 100 μl of samples of free ICG solution (0.15 mg/ml), PMMA-COOH (0.15 mg/ml of ICG present in nanoparticles) and Pegylated nanoparticles containing ICG (0.15 mg/ml) were injected once and their florescence were recorded at various time points as shown in FIGS. 8A-8C. […] There are three possible reasons for florescence quenching; namely, (i) degradation of free ICG physiological conditions, or (ii) rapid clearance of free ICG from the body, or (iii) a combination of both processes.

CC1(C)C(/C=C/C=C/C=C/C=C2\N(CCCCS(=O)(=O)O)c3ccc4ccccc4c3C2(C)C)=[N+](CCCCS(=O)(=O)[O-])c2ccc3ccccc3c21 [free ICG, indocyanine green]
time within which florescence diminished: ≤ 6 h
time within which florescence was completely reduced to almost zero: ≤ 24 h
